Results as given in ChEMBL document CHEMBL1128073, “Inhibition of glycosidases by substituted amidines” (Bioorg Med Chem Lett, 1995).

Experiments:
[1] = Inhibition against Alpha-maninosidase in jack bean; parameters: species or system Canavalia ensiformis
Beta-galactosidase = molecular target: T1, Beta-galactosidase (Bos taurus, UniProt Q58D55); assay: Inhibition against beta-galactosidase in bovine liver; NI is No Inhibition at 1 mM
T1 sequence (Q58D55 whole entry): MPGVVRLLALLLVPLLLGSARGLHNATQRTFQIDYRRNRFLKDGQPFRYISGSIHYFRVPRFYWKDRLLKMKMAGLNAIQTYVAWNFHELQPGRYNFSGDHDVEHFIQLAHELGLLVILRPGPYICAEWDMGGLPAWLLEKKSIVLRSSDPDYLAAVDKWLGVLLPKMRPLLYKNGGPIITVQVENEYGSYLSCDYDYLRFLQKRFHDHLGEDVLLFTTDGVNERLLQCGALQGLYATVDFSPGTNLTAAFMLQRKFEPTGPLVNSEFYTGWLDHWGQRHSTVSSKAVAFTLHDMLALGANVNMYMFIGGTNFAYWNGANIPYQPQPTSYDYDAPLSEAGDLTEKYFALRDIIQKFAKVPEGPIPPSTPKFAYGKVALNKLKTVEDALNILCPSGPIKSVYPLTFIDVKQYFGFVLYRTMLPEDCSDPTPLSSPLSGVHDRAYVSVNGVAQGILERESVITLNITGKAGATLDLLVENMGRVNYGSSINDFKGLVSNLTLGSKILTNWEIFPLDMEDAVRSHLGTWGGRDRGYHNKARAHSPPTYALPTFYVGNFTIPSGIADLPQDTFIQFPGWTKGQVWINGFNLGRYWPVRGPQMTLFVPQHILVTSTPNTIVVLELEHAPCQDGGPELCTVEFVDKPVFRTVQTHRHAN

[2] = pKa value was determined for the compound by 1H NMR titration; format: physicochemical

Ki [1] [µM] | Ki (Beta-galactosidase) | pKa [2] | Compound
1400 | – | – | OCC1CCCC(NCc2ccccc2)=N1 (configuration not stated)
2.6 | No inhibition | – | CO[C@H]1O[C@@H](CNC2=N[C@@H](CO)[C@@H](O)[C@H](O)[C@@H]2O)[C@@H](O)[C@H](O)[C@H]1O
0.55 | No inhibition | 10 | OC[C@@H]1N=C(NCc2ccccc2)[C@@H](O)[C@@H](O)[C@@H]1O
14000 | – | – | c1ccc(CNC2=NCCCC2)cc1
